Experiments:
in vitro = conditions: human
HL-60 = HL-60 differentiation potency; format: cell-based; conditions: Homo sapiens

Row | Structure (SMILES) | IC50 (in vitro) [nM] | EC50 (HL-60) [nM]
1 | C[C@@H]1CC[C@H]2[C@@H](C)C(OCc3ccc(C(=O)O)cc3F)O[C@@H]3O[C@@]4(C)CC[C@@H]1[C@]32OO4 (stereo in doubt) [Compound 45, 3-fluoro-4-((((3R,5aS,6R,8aS, 9R,10S,12R, 12aR)-3,6,9-trimethyldeca-hydro-12H-3,12-epoxy[1,2]dioxepino[4,3-i]isochromen-10-yl)oxy)methyl) benzoic acid] | > 20000 | 662
2 | C[C@H]1[C@@H](OCc2ccc3c(c2)OC(F)(F)O3)O[C@@H]2O[C@@]3(C)CC[C@H]4[C@H](C)CC[C@@H]1[C@@]24OO3 [Compound 1, (3R,5aS,6R,8aS, 9R,10S,12R, 12aR)-10-((2,2-difluorobenzo[d] [1,3]dioxol-5-yl)methoxy)-3,6,9-trimethyldeca-hydro-12H-3,12-epoxy[1,2] dioxepino[4,3-i]isochromene] | 10.6 | 11.1
3 | C[C@H]1[C@H](OCc2ccc(-c3nn[nH]n3)cc2)O[C@@H]2O[C@@]3(C)CC[C@H]4[C@H](C)CC[C@@H]1[C@@]24OO3 [Compound 2, 5-(4-((((3R,5aS,6R, 8aS,9R,10R,12R, 12aR)-3,6,9-trimethyldeca-hydro-12H-3,12-epoxy[1,2]dioxepino[4,3-i]isochromen-10-yl)oxy)methyl)phenyl)-2H-tetrazole] | 58.5 | 41.3
4 | COc1cc(CC(=O)O)ccc1O[C@H]1O[C@@H]2O[C@@]3(C)CC[C@H]4[C@H](C)CC[C@@H]([C@H]1C)[C@@]24OO3 [Compound 3, 2-(3-methoxy-4-(((3R,5aS,6R, 8aS,9R,10S,12R, 12aR)-3,6,9-trimethyldeca-hydro-12H-3,12-epoxy[1,2]dioxepino[4,3-i]isochromen-10-yl)oxy)phenyl) acetic acid] | > 20000 | 42.3
5 | C[C@H]1[C@H](N2CC(S(C)(=O)=O)C2)O[C@@H]2O[C@@]3(C)CC[C@H]4[C@H](C)CC[C@@H]1[C@@]24OO3 [Compound 4, 3-(methylsulfonyl)-1-((3R,5aS,6R, 8aS,9R,10R, 12R,12aR)-3,6,9-trimethyldeca-hydro-1H-3,12-epoxy[1,2]dioxepino[4,3-i]isochromen-10-yl)azetidine] | 101 | 42.8
6 | C[C@H]1[C@@H](OCc2ccc(C(=O)NO)cc2)O[C@@H]2O[C@@]3(C)CC[C@H]4[C@H](C)CC[C@@H]1[C@@]24OO3 [Compound 5, N-hydroxy-4-((((3R,5aS,6R,8aS, 9R,10S,12R, 12aR)-3,6,9-trimethyldeca-hydro-12H-3,12-epoxy[1,2]dioxepino[4,3-i]isochromen-10-yl)oxy)methyl) benzamide] | 2880 | 52.2
7 | C[C@H]1[C@H](OCc2ccc3c(c2)OC(F)(F)O3)O[C@@H]2O[C@@]3(C)CC[C@H]4[C@H](C)CC[C@@H]1[C@@]24OO3 [Compound 6, (3R,5aS,6R,8aS, 9R,10R,12R, 12aR)-10-((2,2-difluorobenzo [d][1,3]dioxol-5-yl)methoxy)-3,6,9-trimethyldeca-hydro-12H-3,12-epoxy[1,2] dioxepino[4,3-i] isochromene] | 50 | 53.2
8 | C[C@H]1[C@H](OCc2ccc(C#N)cc2)O[C@@H]2O[C@@]3(C)CC[C@H]4[C@H](C)CC[C@@H]1[C@@]24OO3 [Compound 7, 4-((((3R,5aS,6R, 8aS,9R,10R,12R, 12aR)-3,6,9-trimethyldeca-hydro-12H-3,12-epoxy[1,2]dioxepino[4,3-i]isochromen-10-yl)oxy)methyl) benzonitrile] | 192 | 54.6
9 | Cc1cc(CC(=O)O)ccc1O[C@H]1O[C@@H]2O[C@@]3(C)CC[C@H]4[C@H](C)CC[C@@H]([C@H]1C)[C@@]24OO3 [Compound 8, 2-(3-methyl-4-(((3R,5aS,6R,8aS, 9R,10S,12R, 12aR)-3,6,9-trimethyldeca-hydro-12H-3,12-epoxy[1,2]dioxepino[4,3-i]isochromen-10-yl)oxy)phenyl) acetic acid] | > 20000 | 57.7
10 | C[C@H]1[C@@H](Oc2ccc(CC(=O)O)cc2F)O[C@@H]2O[C@@]3(C)CC[C@H]4[C@H](C)CC[C@@H]1[C@@]24OO3 [Compound 9, 2-(3-fluoro-4-(((3R,5aS,6R, 8aS,9R,10S,12R, 12aR)-3,6,9-trimethyldeca-hydro-12H-3,12-epoxy[1,2]dioxepino[4,3-i]isochromen-10-yl)oxy)phenyl) acetic acid] | > 20000 | 59.3
11 | C[C@H]1[C@@H](OCCCc2ccc(C(=O)O)cc2)O[C@@H]2O[C@@]3(C)CC[C@H]4[C@H](C)CC[C@@H]1[C@@]24OO3 [Compound 10, 4-(3-(((3R,5aS,6R, 8aS,9R,10S,12R, 12aR)-3,6,9-trimethyldeca-hydro-12H-3,12-epoxy[1,2]dioxepino[4,3-i]isochromen-10-yl)oxy)propyl) benzoic acid] | > 10000 | 63.8
12 | C[C@H]1[C@@H](OC[C@H]2CC[C@@H](C(=O)O)CC2)O[C@@H]2O[C@@]3(C)CC[C@H]4[C@H](C)CC[C@@H]1[C@@]24OO3 [Compound 11, (1R,4s)-4-((((3R,5aS,6R,8aS, 9R,10S,12R, 12aR)-3,6,9-trimethyldeca-hydro-12H-3,12-epoxy[1,2]dioxepino[4,3-i]isochromen-10-yl)oxy)methyl) cyclohexane-1-carboxylic acid] | > 20000 | 87.4
13 | C[C@H]1[C@H](Oc2ccc(CC(=O)O)cc2)O[C@@H]2O[C@@]3(C)CC[C@H]4[C@H](C)CC[C@@H]1[C@@]24OO3 [Compound 12, 2-(4-(((3R,5aS, 6R,8aS,9R,10R, 12R,12aR)-3,6,9-trimethyldeca-hydro-12H-3,12-epoxy[1,2]dioxepino[4,3-i]isochromen-10-yl)oxy)phenyl) acetic acid] | > 20000 | 92.4
14 | C[C@H]1[C@@H](OCc2ccc(C(=O)O)nc2)O[C@@H]2O[C@@]3(C)CC[C@H]4[C@H](C)CC[C@@H]1[C@@]24OO3 [Compound 13, 5-((((3R,5aS,6R, 8aS,9R,10S,12R, 12aR)-3,6,9-trimethyldeca-hydro-12H-3,12-epoxy[1,2]dioxepino[4,3-i]isochromen-10-yl)oxy)methyl) picolinic acid] | 1420 | 88.9
15 | C[C@H]1[C@@H](OCc2ccnc(C(=O)O)c2)O[C@@H]2O[C@@]3(C)CC[C@H]4[C@H](C)CC[C@@H]1[C@@]24OO3 [Compound 15, 4-((((3R,5aS,6R, 8aS,9R,10S,12R, 12aR)-3,6,9-trimethyldeca-hydro-12H-3,12-epoxy[1,2]dioxepino[4,3-i]isochromen-10-yl)oxy)methyl) picolinic acid] | 2550 | 93.1
16 | C[C@H]1[C@@H](Oc2ccc(CC(=O)O)cc2Cl)O[C@@H]2O[C@@]3(C)CC[C@H]4[C@H](C)CC[C@@H]1[C@@]24OO3 [Compound 16, 2-(3-chloro-4-(((3R,5aS,6R,8aS, 9R,10S,12R, 12aR)-3,6,9-trimethyldeca-hydro-12H-3,12-epoxy[1,2]dioxepino[4,3-i]isochromen-10-yl)oxy)phenyl) acetic acid] | > 10000 | 94.8
17 | C[C@H]1[C@H](N(C)CCS(C)(=O)=O)O[C@@H]2O[C@@]3(C)CC[C@H]4[C@H](C)CC[C@@H]1[C@@]24OO3 [Compound 17, (3R,5aS,6R,8aS, 9R,10R,12R, 12aR)-N,3,6,9-tetramethyl-N-(2-(methylsulfonyl)ethyl)decahydro-12H-3,12-epoxy [1,2]dioxepino [4,3-i] isochromen-10-amine] | 243 | 95.5
18 | C[C@H]1[C@@H](OCc2ccc(S(N)(=O)=O)cc2)O[C@@H]2O[C@@]3(C)CC[C@H]4[C@H](C)CC[C@@H]1[C@@]24OO3 [Compound 18, 4-((((3R,5aS,6R, 8aS,9R,10S,12R, 12aR)-3,6,9-trimethyldeca-hydro-12H-3,12-epoxy[1,2]dioxepino[4,3-i]isochromen-10-yl)oxy)methyl) benzene-sulfonamide] | 2250 | 99
19 | C[C@H]1[C@@H](OCc2ccc(C#N)cc2)O[C@@H]2O[C@@]3(C)CC[C@H]4[C@H](C)CC[C@@H]1[C@@]24OO3 [Compound 19, 4-((((3R,5aS,6R, 8aS,9R,10S,12R, 12aR)-3,6,9-trimethyldeca-hydro-12H-3,12-epoxy[1,2]dioxepino[4,3-i]isochromen-10-yl)oxy)methyl) benzonitrile] | 138 | 104
20 | C[C@H]1[C@@H](Oc2cccc(CC(=O)O)c2)O[C@@H]2O[C@@]3(C)CC[C@H]4[C@H](C)CC[C@@H]1[C@@]24OO3 [Compound 20, 2-(3-(((3R,5aS,6R, 8aS,9R,10S,12R, 12aR)-3,6,9-trimethyldeca-hydro-12H-3,12-epoxy[1,2]dioxepino[4,3-i]isochromen-10-yl)oxy)phenyl) acetic acid] | 8330 | 116
21 | C[C@H]1[C@H](OCCCc2ccc(C(=O)O)cc2)O[C@@H]2O[C@@]3(C)CC[C@H]4[C@H](C)CC[C@@H]1[C@@]24OO3 [Compound 21, 4-(3-(((3R,5aS,6R,8aS, 9R,10R,12R, 12aR)-3,6,9-trimethyldeca-hydro-12H-3,12-epoxy[1,2]dioxepino[4,3-i]isochromen-10-yl)oxy)propyl) benzoic acid] | > 20000 | 123
22 | C[C@H]1[C@@H](Oc2ccc(CC(=O)O)c(F)c2F)O[C@@H]2O[C@@]3(C)CC[C@H]4[C@H](C)CC[C@@H]1[C@@]24OO3 [Compound 23, 2-(2,3-difluoro-4-(((3R,5aS,6R,8aS, 9R,10S,12R, 12aR)-3,6,9-trimethyldeca-hydro-12H-3,12-epoxy[1,2]dioxepino[4,3-i]isochromen-10-yl)oxy)phenyl) acetic acid] | 15000 | 192
23 | C[C@H]1[C@@H](OCc2ccc(C(=O)O)c(F)c2)O[C@@H]2O[C@@]3(C)CC[C@H]4[C@H](C)CC[C@@H]1[C@@]24OO3 [Compound 24, 2-fluoro-4-((((3R,5aS,6R,8aS, 9R,10S,12R, 12aR)-3,6,9-trimethyldeca-hydro-12H-3,12-epoxy[1,2]dioxepino[4,3-i]isochromen-10-yl)oxy)methyl) benzoic acid] | > 20000 | 210

Reference: patent publication US20260242391A1 (priority 2023, published 2026)
